Data published in ChEMBL document CHEMBL1154506, “Discovery and development of the anticancer agent salinosporamide A (NPI-0052)” (Bioorg Med Chem, 2009).

How the values were obtained:
HCT-116 = experiment: Cytotoxicity against human HCT116 cells; format: functional, cell-based
[1] = Cytotoxicity against human NCI60 cells; format: functional

C[C@@]12OC(=O)[C@]1([C@@H](O)[C@@H]1C=CCCC1)NC(=O)[C@@H]2CCCl [MARIZOMIB]
IC50 (HCT-116): ≤ 2 ng/mL | GI50 [1]: < 0.01 µM
